This note sets out measurements from US20170066759A1, “AROMATIC 5-MEMBERED HETEROCYCLIC DERIVATIVE HAVING TRPV4-INHIBITING ACTIVITY” (Shionogi & Co., Ltd., priority 2012, published 2017).

A value given as a limit tells only on which side of the number the result lay.

T1 sequence (Q9HBA0 whole entry): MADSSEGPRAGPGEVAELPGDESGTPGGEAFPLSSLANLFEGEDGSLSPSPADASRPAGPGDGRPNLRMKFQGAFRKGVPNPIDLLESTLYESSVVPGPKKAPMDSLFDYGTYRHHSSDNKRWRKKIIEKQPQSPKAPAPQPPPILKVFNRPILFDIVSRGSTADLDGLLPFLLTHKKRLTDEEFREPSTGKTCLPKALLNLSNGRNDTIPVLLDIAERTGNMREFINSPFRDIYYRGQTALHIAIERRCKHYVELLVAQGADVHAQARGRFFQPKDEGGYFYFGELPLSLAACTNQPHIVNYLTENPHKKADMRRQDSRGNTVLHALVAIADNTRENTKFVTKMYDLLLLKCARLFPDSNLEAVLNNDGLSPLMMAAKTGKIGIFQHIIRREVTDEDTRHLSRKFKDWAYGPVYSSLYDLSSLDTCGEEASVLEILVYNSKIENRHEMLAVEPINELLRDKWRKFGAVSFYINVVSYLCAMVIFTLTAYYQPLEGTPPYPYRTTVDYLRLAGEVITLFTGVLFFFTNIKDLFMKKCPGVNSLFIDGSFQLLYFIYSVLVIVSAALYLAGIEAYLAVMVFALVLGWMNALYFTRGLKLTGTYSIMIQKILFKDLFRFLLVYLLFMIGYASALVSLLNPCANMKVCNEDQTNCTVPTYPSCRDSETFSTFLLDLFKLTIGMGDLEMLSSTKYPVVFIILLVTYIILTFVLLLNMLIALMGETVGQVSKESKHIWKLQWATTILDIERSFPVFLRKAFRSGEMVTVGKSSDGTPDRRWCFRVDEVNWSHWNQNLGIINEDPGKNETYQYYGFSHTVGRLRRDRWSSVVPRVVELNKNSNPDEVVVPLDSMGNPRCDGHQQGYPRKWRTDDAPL

The first assay addresses T1, human TRPV4 (hTRPV4/CHO cells) (Homo sapiens, UniProt Q9HBA0).
T1 construct: expressed in transfected cells; host or cells: CHO-K1
Put plainly: Test Example 1: TRPV4 inhibitory activity (IC50 value), 4α-PDD stimulation, Fluo4 calcium fluorescence (FLIPR TETRA). To be noted: 1 μmol/L 4α-PDD, Fluo4-AM, read-out: TRPV4 inhibitory activity (IC50 value). The class given is cell-based.
For orientation: IC50 means the concentration that gives 50% inhibition. Turning to `Cc1nc(C)c(-c2csc(NC(=O)Cc3cc(OCC(F)(F)F)cc(C(=O)N[C@H](c4ccccc4)C(F)(F)F)c3)n2)s1` [Compound I-521], the IC50 is 1.6 nM. Consider `CC(=O)NCc1nc(CO)sc1-c1csc(NC(=O)Cc2ccc(S(=O)(=O)C(F)(F)F)cc2)n1` [Compound I-382], for which the half-inhibitory concentration (IC50) was 22 nM.

Staying with this assay, now noted: Test Example 1, 4α-PDD stimulation, read-out: Test 1 IC50.
As to `Cc1nc(C)c(-c2csc(NC(=O)Cc3cc(OCC(F)(F)F)cc(C(=O)N[C@H](c4ccccc4)C(F)(F)F)c3)n2)s1` [Compound I-521], the concentration for half-maximal inhibition (IC50) is under 100 nM. Regarding `Cc1nc(C)c(-c2csc(NC(=O)C3Cc4ccc(Cl)c(Cl)c4O3)n2)s1` (stereo not drawn) [Compound I-195], the half-maximal inhibitory concentration (IC50) is under 100 nM. As to `Cc1nc(C)c(-c2csc(NC(=O)C3Cc4ccccc4C3)n2)s1` [Compound I-88], the half-maximal inhibitory concentration (IC50) was in the range of 1000 to 8000 nM.

`CCNCc1nc(C)sc1-c1csc(NC(=O)Cc2c(F)cccc2F)n1` [Compound I-198]: the IC50 was in the range of 100 to 1000 nM.

Consider `O=C(Cc1ccc(S(=O)(=O)C(F)(F)F)cc1)Nc1nc(-c2sc(CO)nc2CNC(=O)C2(C(F)(F)F)CC2)cs1` [Compound I-439], for which the half-maximal inhibitory concentration (IC50) is under 100 nM. On the same count and under the same terms, to `Cc1nc(C(=O)NCCO)sc1-c1csc(NC(=O)Cc2c(F)cccc2F)n1` [Compound I-125] belongs 1000 to 8000 nM. For the compound `Cc1nc(C)c(-c2csc(NC(=O)Cn3cc(-c4ccncc4)cn3)n2)s1` [Compound I-168], the IC50 lay within 100 to 1000 nM.

As for `Cc1nc(C(C)(C)O)c(-c2csc(NC(=O)Cc3c(F)cccc3F)n2)s1` [Compound I-128], the half-maximal inhibitory concentration (IC50) was 100 to 1000 nM. In the case of `Cc1nc(C)c(-c2csc(NC(=O)Cc3ccc(S(=O)(=O)CC(F)(F)F)cc3)n2)s1` [Compound I-141], the half-inhibitory concentration (IC50) is under 100 nM. Consider `C=C(C)c1nc(C)sc1-c1csc(NC(=O)Cc2c(F)cccc2F)n1` [Compound I-545], for which the IC50 lay in the range of 100 to 1000 nM.

`Cc1nc(C)c(-c2csc(NC(=O)Cc3ccc(C(F)(F)F)cc3)n2)o1` [Compound I-139]: the IC50 lay in the range of 100 to 1000 nM. Regarding `COc1cc(CC(=O)Nc2nc(-c3sc(C)nc3C)cs2)cc(C(=O)Nc2ccc(C(F)(F)F)cc2)c1` [Compound I-525], the half-maximal inhibitory concentration (IC50) is under 100 nM.

As to `Cc1nc(CO)sc1-c1csc(NC(=O)Cn2cnc(C(F)(F)F)c2)n1` [Compound I-406], the IC50 lay within 1000 to 8000 nM. On to `COC(=O)N1C[C@H](c2ccccc2)C[C@H]1C(=O)Nc1nc(-c2sc(CO)nc2C)cs1` [Compound I-323], for which the IC50 is under 100 nM. On to `Cc1nc(C)c(-c2csc(NC(=O)[C@@H]3CCCN3C(=O)OC(C)(C)C)n2)s1` [Compound I-249], for which the 50% inhibitory concentration (IC50) was in the range of 100 to 1000 nM. On the same count and under the same terms, to `CC(=O)Nc1nc(-c2sc(C)nc2C)cs1` [Compound I-480] belongs 1000 to 8000 nM; to `Cc1nc(C)c(-c2csc(NC(=O)[C@@H]3C[C@@H](c4ccccc4)CN3C(=O)C(C)C)n2)s1` [Compound I-291], 100 to 1000 nM. Consider `Cc1nc(CO)sc1-c1csc(NC(=O)C2CN(c3cccnc3C(F)(F)F)C2)n1` [Compound I-310], for which the IC50 is under 100 nM. Still for that read-out and setting: next, `NC(=O)Cc1nc(CO)sc1-c1csc(NC(=O)Cc2ccc(S(=O)(=O)C(F)(F)F)cc2)n1` [Compound I-358]: 100 to 1000 nM; `CC(=O)N1C[C@H](Oc2ccccc2)C[C@H]1C(=O)Nc1nc(-c2sc(C)nc2C)cs1` [Compound I-251]: 1000 to 8000 nM; `Cc1nc(C)c(-c2csc(N(CCCN3CCOCC3)C(=O)Cc3ccc(S(=O)(=O)C(F)(F)F)cc3)n2)s1` [Compound I-364]: 1000 to 8000 nM.

Consider `Cc1nc(C)c(-c2csc(NC(=O)C3CN(c4cnc(C(F)(F)F)cn4)C3)n2)s1` [Compound I-534], for which the IC50 is under 100 nM.

`Cc1nc(CO)c(-c2csc(NC(=O)Cc3c(F)cccc3F)n2)s1` [Compound I-96]: the IC50 is 100 to 1000 nM. For `Cc1nc(C)c(-c2csc(NC(=O)[C@@H]3C[C@@H](c4ccccc4)CN3C)n2)s1` [Compound I-217], the concentration for half-maximal inhibition (IC50) fell in the range of 1000 to 8000 nM. Same read-out and setting: to `COC(=O)NCc1nc(CO)sc1-c1csc(NC(=O)Cc2ccc(S(=O)(=O)C(F)(F)F)cc2)n1` [Compound I-435] belongs under 100 nM; to `Cc1nc(CCl)c(-c2csc(NC(=O)Cc3ccc(S(=O)(=O)C(F)(F)F)cc3)n2)s1` [Compound I-484], under 100 nM; to `Cc1nc(C)c(-c2csc(NC(=O)Cc3cccc(S(=O)(=O)Nc4ccccc4F)c3)n2)s1` [Compound I-501], under 100 nM. Take `CC(=O)NC(C)c1nc(CO)sc1-c1csc(NC(=O)Cc2ccc(S(=O)(=O)C(F)(F)F)cc2)n1` (single isomer, unassigned) [Compound I-481]: the IC50 fell in the range of 100 to 1000 nM. For the compound `Cc1nc(CO)sc1-c1csc(NC(=O)CN2Cc3ccccc3C2)n1` [Compound I-241], the half-inhibitory concentration (IC50) was in the range of 100 to 1000 nM. Consider `Cc1nc(C)c(-c2csc(NC(Cc3ccc(Cl)cc3)C(=O)NC3CCOCC3)n2)s1` (racemic) [II-46], for which the half-maximal inhibitory concentration (IC50) fell in the range of 1000 to 8000 nM. As to `Cc1[nH]c(=O)sc1-c1csc(NC(=O)Cc2ccc(S(=O)(=O)C(F)(F)F)cc2)n1` [Compound I-451], the half-inhibitory concentration (IC50) lay in the range of 100 to 1000 nM. Take `Cc1nc(CO)sc1-c1csc(NC(=O)C2CN(c3ccc(C(F)(F)F)nc3)C2)n1` [Compound I-309]: the IC50 was under 100 nM. Turning to `Cc1nc(C)c(-c2csc(NC(=O)[C@@H]3C[C@@H](Oc4ccccc4)CN3C(=O)CO)n2)s1` [Compound I-252], the IC50 is 1000 to 8000 nM. As for `Cc1nc(C(C)O)sc1-c1csc(NC(=O)[C@@H]2C[C@@H](c3ccccc3)CN2C(=O)C(F)(F)F)n1` (stereo partly drawn) [Compound I-476], the half-inhibitory concentration (IC50) is under 100 nM. On to `Cc1nc(C)c(-c2csc(NC(=O)Cc3cccc(Br)c3)n2)s1` [Compound I-408], for which the 50% inhibitory concentration (IC50) is under 100 nM. On to `Cc1nc(C)c(-c2csc(NC(=O)C3Cc4c([N+](=O)[O-])cc(Cl)c(Cl)c4O3)n2)s1` (stereo not drawn) [Compound I-201], for which the concentration for half-maximal inhibition (IC50) was under 100 nM. For the compound `Cc1nc(CO)sc1-c1csc(NC(=O)[C@@H]2C[C@@H](c3ccccc3)CN2C(=O)OCC(F)(F)F)n1` [Compound I-314], the IC50 was under 100 nM. For the compound `Cc1nc(C)c(-c2csc(NC(=O)Cc3cc(C(=O)N[C@H](c4ccccc4)C(F)(F)F)cc([N+](=O)[O-])c3)n2)s1` [Compound I-517], the IC50 is under 100 nM.

As to `Cc1nc(C)c(-c2csc(NC(=O)Cn3cc(COc4ccccc4)nn3)n2)s1` [Compound I-424], the IC50 was under 100 nM. As for `Cc1nc(C)c(-c2csc(NC(=O)C3CN(CC(F)(F)F)C3)n2)s1` [Compound I-281], the IC50 was in the range of 100 to 1000 nM. Still for that read-out and setting: next, `NS(=O)(=O)NCc1nc(CO)sc1-c1csc(NC(=O)Cc2ccc(S(=O)(=O)C(F)(F)F)cc2)n1` [Compound I-384]: 100 to 1000 nM; `Cc1nc(C(C)O)sc1-c1csc(NC(=O)C2CN(c3ccc(C(F)(F)F)cn3)C2)n1` (racemic) [Compound I-473]: 100 to 1000 nM; `Cc1nc(CO)sc1-c1csc(NC(=O)NCc2ccc(Cl)cc2)n1` [Compound I-442]: 100 to 1000 nM. As to `O=C(Cc1ccc(S(=O)(=O)C(F)(F)F)cc1)Nc1nc(-c2sc(CO)nc2CCCO)cs1` [Compound I-360], the concentration for half-maximal inhibition (IC50) is under 100 nM. As for `Cc1nc(C)c(-c2csc(NC(=O)[C@H]3C[C@@H](c4ccccc4)CN3C(=O)OC(C)(C)C)n2)s1` [Compound I-243], the IC50 fell in the range of 100 to 1000 nM.

For `Cc1nc(CO)c(-c2csc(NC(=O)Cc3ccc(S(=O)(=O)C(F)(F)F)cc3)n2)s1` [Compound I-456], the half-maximal inhibitory concentration (IC50) is under 100 nM. Take `Cc1nc(C)c(-c2csc(NC(=O)C3CN(C(=O)c4ccc(C(F)(F)F)cc4)C3)n2)s1` [Compound I-257]: the concentration for half-maximal inhibition (IC50) is 100 to 1000 nM. With `CC(=O)NCc1nc(CO)sc1-c1csc(NC(=O)Cc2ccc(S(=O)(=O)C(F)(F)F)cc2)n1` [Compound I-382], the IC50 was under 100 nM. Consider `Cc1nc(C)c(-c2nc(NC(=O)Cc3c(F)cccc3F)sc2C(=O)Nc2ccccc2Cl)s1` [Compound I-86], for which the concentration for half-maximal inhibition (IC50) fell in the range of 1000 to 8000 nM.
